From publication PMC12040169 (PLOS Biology, 2025)

Test: in vitro
Settings: human, hela cells, % viability

SMILES	viability at 28.5 h, 10 µM [%]
Cc1ccccc1-c1nnc(SC(C)C)n1CCN(C)S(C)(=O)=O [CBK200088]	101
Cc1ccccc1-c1nnc(SC(C)C)n1CCN(C)CC(F)(F)F [CBK200090]	92.3
CC(C)CSc1nnc(-c2ccccc2F)n1CC(C)C [CBK200091]	95.8
Brc1ccccc1-c1nnc2n1CCCCC2 [CBK200092]	90.9
COc1cc(C(C)c2cc3c(cc2O)OCO3)cc(OC)c1OC (stereo not shown) [CBK200103]	36.3
COC(=O)C1Cc2cc3c(cc2C(c2cc(OC)c(OC)c(OC)c2)N1)OCO3 (stereo not shown) [CBK200104T]	65.5
COc1cc2c(cc1C(C)c1ccc3c(c1)OCO3)OCO2 (stereo not shown) [CBK200107]	97.4
COc1ccc(C(C)c2cc3c(cc2OCC(=O)O)OCO3)cc1 (stereo not shown) [CBK200108]	87.4
CC(c1ccc2c(c1)OCO2)c1cc2c(cc1OCCO)OCO2 (stereo not shown) [CBK200110]	98.9
O=C(O)Cc1sc(-c2ccc3c(c2)OCO3)nc1-c1ccccc1 [CBK200114]	87.3
Cc1onc(-c2ccccc2)c1C(=O)NCc1ccccc1 [CBK200116]	99.4
Cc1ccc(C(=O)NC2CCCC2)cn1 [CBK200117]	91.6
O=C(NC1CCCC1)c1ccc2ncccc2c1 [CBK200118]	90.2
CN1CCN(c2ccc(C(=O)NC3CCCC3)cc2)CC1 [CBK200119]	78.5
O=C(OCc1cc2ccccc2cn1)N1CCOCC1 [CBK200121]	102
C[C@@H]1CN(C(=O)OCCn2cccc2)C[C@H](C)O1 [CBK200123]	82.2
O=C(Nc1ccncc1)OCCc1cccnc1 [CBK200125]	94.2
Cc1cc(NC(=O)OCc2cccnc2C)c2ccccc2n1 [CBK200129]	95.9
Cc1ccc(CNC(=O)OCc2cccnc2C)o1 [CBK200131]	99
O=C(NCc1ccc(C(F)(F)F)nc1)OCCc1ccncc1 [CBK200132]	93.2
O=C(NCc1ccncc1)OCCc1ccncc1 [CBK200133]	108
Cc1ncccc1COC(=O)N1c2ccc(F)cc2CCC1C (stereo not shown) [CBK200139]	92.2
O=C(OCCc1ccncc1)N1CCc2ccccc21 [CBK200140]	94.9
O=C(OCCc1ccncc1)N1Cc2ccccc2C1 [CBK200141]	95.5
C[C@@H]1CN(C(=O)OCc2nccn2C)C[C@H](C)O1 [CBK200142]	103

SMILES	viability at 28.5 h, 10 µM [%]
COc1c(C)cnc(COC(=O)N2C[C@@H](C)O[C@@H](C)C2)c1C [CBK200143]	96.2
Cc1cc2nc(COC(=O)N3CCOCC3)[nH]c2cc1C [CBK200144]	107
COc1c(C)cnc(COC(=O)N2CCOCC2)c1C [CBK200145]	105
O=C(OCc1nc2ccccc2[nH]1)N1CCOCC1 [CBK200146]	109
Cc1nc(-c2ccccc2)ncc1COC(=O)N1CCOCC1 [CBK200147]	112
Cc1ccsc1CNC(=O)OCC1CCN(C)CC1 [CBK200149]	96.9
Cc1ncccc1COC(=O)N1CCSCC1 [CBK200156]	104
O=C(OCCc1ccncc1)N1CCCC(F)(F)C1 [CBK200157]	92.2
O=C(OCCc1cccnc1)N1CCC(C(F)(F)F)CC1 [CBK200159]	94.9
COC1CCN(C(=O)OCCc2cccnc2)CC1 [CBK200161]	89.2
O=C(OCc1cc2ccccc2o1)N1CCOCC1 [CBK200162]	98.1
O=C(OCc1ccc2sccc2c1)N1CCOCC1 [CBK200163]	101
Cc1noc(C)c1C(=O)N1CCN(c2ccccc2)CC1 [CBK200165]	97.8
O=C(c1nc2ccccc2[nH]1)N1CCN(c2ccccc2)CC1 [CBK200167]	103
Cn1cc(CC(=O)N2CCN(c3ccccc3)CC2)c2ccccc21 [CBK200168]	95.8
Cc1ncccc1C(=O)N1CCN(Cc2ccccc2)CC1 [CBK200171]	97.7
O=C(Cc1ccccn1)N1CCN(Cc2ccccc2)CC1 [CBK200174]	103
O=C(c1ccc2ncccc2c1)N1CCN(Cc2ccccc2)CC1 [CBK200175]	99.1
Cc1nc(C)c(C(=O)N2CCN(Cc3ccccc3)CC2)s1 [CBK200177]	101
O=C(c1cnccn1)N1CCC(Cc2ccccc2)CC1 [CBK200181]	92.6
O=C(Cc1cccnc1)N1CCC(Cc2ccccc2)CC1 [CBK200183]	97
O=C(c1ccc2ccccc2n1)N1CCC(Cc2ccccc2)CC1 [CBK200184]	96.4
O=C(NCc1ccccc1)c1ccncc1 [CBK200189]	108
O=C(NCc1ccccc1)c1ccnc2ccccc12 [CBK200191]	83.7
Cc1ccncc1C(=O)NCc1ccccc1 [CBK200193]	110

SMILES	viability at 28.5 h, 10 µM [%]
O=C(NCc1ccccc1)c1cnccc1C(F)(F)F [CBK200194]	92.3
Cn1c(C(=O)NCc2ccccc2)cc2ccccc21 [CBK200195]	81.7
Cn1cc(C(=O)NCc2ccccc2)c2ccccc21 [CBK200196]	72.9
O=C(NCc1ccccc1)c1ccno1 [CBK200197]	86.9
Cc1cc(C(=O)NCc2ccccc2)n[nH]1 [CBK200198]	95.7
Cn1cncc1C(=O)NCc1ccccc1 [CBK200199]	96.9
Cn1cc(CC(=O)NCc2ccccc2)c2ccccc21 [CBK200200]	84.1
O=C(c1ccccn1)N1CCN(CCc2ccccc2)CC1 [CBK200201]	99.1
Cc1ncccc1COC(=O)N1c2ccccc2CCC1C (stereo not shown) [CBK200204]	101
Cc1ccc(CNC(=O)OCCN2CCN(C)CC2)o1 [CBK200205]	112
CN1CCN(CCOC(=O)N2CCC(C(F)(F)F)CC2)CC1 [CBK200206]	103
CN1CCN(CCOC(=O)N2CCCC(C(F)(F)F)C2)CC1 (stereo not shown) [CBK200207]	87.2
CN1CCN(CCOC(=O)N2CCCC(F)(F)C2)CC1 [CBK200208]	105
O=C(c1ccc2nccnc2c1)N1CCN(c2ccccc2)CC1 [CBK200209]	92.9
O=C(COc1cccnc1)N1CCN(c2ccccc2)CC1 [CBK200210]	106
CN1CCC(C(=O)N2CCN(c3ccccc3)CC2)CC1 [CBK200211]	93.5
Cc1cc2ncn(CC(=O)NCc3ccccc3)c2cc1C [CBK200213]	104
O=C(CN1CCOCC1)N1CCN(CCc2ccccc2)CC1 [CBK200215]	91.4
CN1CCC(C(=O)N2CCN(CCc3ccccc3)CC2)CC1 [CBK200216]	103
O=C(NC1CCCC1)c1ccc2nccnc2c1 [CBK200217]	102
Cc1ccc(NC(=O)c2cnc3ccccc3n2)c(C)n1 [CBK200218]	97.7
Cc1cc2ncn(CC(=O)Nc3c(C)noc3C)c2cc1C [CBK200222]	79.5
O=C(c1cncnc1)N1Cc2ccccc2C1 [CBK200223]	106
